In patent publication US8691586B2 (priority 2006, dated 2014):

Key:
[1] = molecular target: wild-type (WT) staphylococcal α-hemolysin (αHL) heptamer (Staphylococcus aureus, UniProt P09616); assay type: biochemical; settings: pH 7
[2] = molecular target: WT αHL (Staphylococcus aureus, UniProt P09616); assay type: biochemical, staphylococcal; settings: pH 7
[3] = molecular target: αHL pore (Staphylococcus aureus, UniProt P09616); assay type: biochemical, staphylococcal
αHL pore, sequence (P09616 27-319 limits assumed): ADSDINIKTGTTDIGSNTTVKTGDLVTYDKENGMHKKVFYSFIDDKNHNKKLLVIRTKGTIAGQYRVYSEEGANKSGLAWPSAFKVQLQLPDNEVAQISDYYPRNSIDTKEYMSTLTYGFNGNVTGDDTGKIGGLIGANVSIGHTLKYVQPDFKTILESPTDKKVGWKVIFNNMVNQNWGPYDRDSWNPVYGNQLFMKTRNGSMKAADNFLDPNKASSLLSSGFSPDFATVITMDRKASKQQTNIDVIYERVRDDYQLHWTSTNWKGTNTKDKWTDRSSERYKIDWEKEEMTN

wild-type (WT) staphylococcal α-hemolysin (αHL) heptamer, sequence (P09616 27-319 limits assumed): as above
WT αHL, sequence (P09616 27-319 limits assumed): as above

In the case of γ-cyclodextrin [γCD], the “residence time (toff) for γCD bound to the αHL pore” value [1] is reported as 495 ± 51 ms, the “ionic current blocked by transient binding to an αHL pore” value [2] is reported as “around 60%” and the “residence time (toff)” value [3] is reported as 421 ± 22 ms.
